In patent US11045519B2, “Arginine-rich polypeptide compositions and methods of using same” (UNM Rainforest Innovations, priority 2017, dated 2021):

Tested on: HPV16 PsVs
Test: Post-attachment and time-course HPV16 PsV infection of HaCaT cells
Format: cell-based
Procedure: FIG. 6. PolyR inhibits HPV16 PsV infection at pre-attachment and post-attachment stages. (A) Infection of HaCaT cells with HPV16. Semi-confluent HaCaT cells were left untreated with polyR (H16) or exposed to HPV16 PsV 1 h before (polyR/H16) or one hour after […] (H16/PolyR) treatment, were subjected to infectivity measurements after a 24-hour incubation at 37° C. (as described in FIG. 1). (B) Time-course experiments of HPV infection in the absence or presence of polyR. Untreated control cells were infected with HPV16 PsV (HPV16). HaCaT cells were treated with 1 μM polyR before (+1 h polyR/HPV16), concurrently (0 h polyR/HPV16) or at one hour, two hours, four hours, six hours, or eight hours post-attachment of HPV16 PsVs. Infection was scored at 24 hours post HPV attachment and shift to 37° C.
FIG. 18. PrS post-attachment effect on HPV infection. HaCaT cell were incubated with 500 vge/cell HPV PsVs at RT for one hour before addition of 1.5 μM PrS complexed with 0.1% HMW HA or with 3 μM LMW HA. Infection scored 24 after infection as described in FIG. 12.
FIG. 20. Time-course experiments of HPV infection in the presence of PrS or HA:PrS complex. (A) PrS; (B) HA:PrS complex. HaCaT cells were treated with 2 μM PrS or 2 μM PrS associated with 0.1% HMW HA at indicated times post-attachment of HPV16 PsVs, and infection was scored 24 hours after infection as described in FIG. 12. Time-point zero represents initial PsV inoculation.
The data above show clearly that polyR can inhibit HPV binding to cells and infection, but that polyR cannot displace HPV after bound to cells. To determine whether polyR can alter HPV infectivity if it is present after HPV is bound to cells, the infection levels of virus-exposed cells that are either pre-treated with polyR before virus binding, polyR-treated after HPV binding, or untreated with polyR were compared. […] This indicates a second mechanism whereby polyR can block HPV infection after virus is bound to cells.
Next, the effectiveness of polyR treatment in blocking infection when added at increasing times post HPV binding to cells was tested. This time-course experiment confirmed that polyR affects post-attachment stages of virus infection. HaCaT cells were treated with polyR one hour prior to virus exposure, concurrently with virus exposure, and at increasing times after virus was bound and unbound virus was removed. Infection efficiency was measured after a 24-hour incubation at 37° C. The cells infected with HPV16 PsV in the absence of polyR (FIG. 6B, HPV16) was considered as 100% infection efficiency.
To investigate PrS post-attachment effect on infection, HaCaT cell were exposed with HPV PsVs at room temperature for one hour before addition of PrS complexed with heavy molecular weight (HMW) HA or with low molecular weight (LMW) HA.
Time-course experiments in which HaCaT cells were exposed to PrS or PrS:HA complex at various times after attachment with HPV16 PsVs confirmation this mechanism.

Substance: poly-L-arginine [polyR]
- inhibition of HPV16 infection (1 μM, added 1 h before virus exposure): > 95%
- inhibition of HPV16 infection (1 μM, added 1 h to 2 h post HPV binding): Strong infection inhibition
- reduction in HPV infection (1 μM, added 4 h post infection): approximately 75%
- inhibition of HPV16 infection (1 μM, added 6 h to 8 h post infection): Only mild inhibition
- inhibition of HPV16 infection (1 μM, added simultaneously with HPV (0 h)): same magnitude of infection inhibition
- inhibition of infection when added after virus binding versus before (2 μM, 1 h after versus 1 h before HPV16 PsV, 24 h): as effective at inhibiting HPV infection when added after virus was bound to cells as it was when added prior to virus exposure
